What all share (test): Poison Plate Assay, MIC and synergy of combinations
Format in all cases: cell-based

In assay [1] the test system is Coriolus versicolor CTB863A. Particulars: Trametes versicolor, 336 h, ppm total active ingredient, growth evaluated after two weeks, 27° C., 70% relative humidity, read-out: MIC-values (minimum inhibitory concentration). Here is the method: (§1) • Test models: Fungi: to each well of a 24-well microtiter plate, 1000 μl of a rich (Potato Dextrose Agar, PDA: 4 g potato infusion, 20 g bacto dextrose and 15 g bacto agar in 1 liter deionised water) or poor (Glucose Agar, GA: 10 g glucose, 1.5 g K2HPO4, 2 g KH2PO4, 1 g (NH4)2SO4, 0.5 g MgSO4 and 12.5 g agar in 1 liter deionised water) medium containing the appropriate combination of the test compounds in one of the concentrations of a dose series is added. The nutrient medium is inoculated with the test fungi by adding a spore/mycelium suspension (10 μl) or a small piece of agar from the margin of an actively growing colony and incubated under dark at 27° C. with 70% relative humidity. The growth of the fungi is evaluated after two weeks. • Bacteria: to each well of a 24-well microtiter plate, 1000 μL Tryptose Agar (TA, 20 g bacto tryptose agar, 5 g sodium chloride, 1 g bacto dextrose and 15 g agar in 1 liter deionised water), containing the test compounds in one of the concentrations of a dose series is added. The nutrient medium is inoculated by adding 10 μl of an actively growing liquid culture of the test bacteria in tryptose broth (without agar), and incubated under dark at 27° C. with 70% relative humidity.
(§2) When the Synergy Index is greater than 1.0, antagonism is indicated. When the SI is equal to 1.0, additivity is indicated.

Assay [2] deals with Chaetomium globosum ATCC6205. Particulars: ATCC6205, 336 h, ppm total active ingredient, growth evaluated after two weeks, 27° C., 70% relative humidity, read-out: MIC-values (minimum inhibitory concentration). Here is the method: as §1, §2
Assay [3] has as its system Ulocladium atrum IMI214699a. Particulars: Alternaria atra, 336 h, ppm total active ingredient, growth evaluated after two weeks, 27° C., 70% relative humidity, read-out: MIC-values (minimum inhibitory concentration). Here is the method: as §1
A. G. Nass (1957) “Some aspects of the notions additivity, synergism and antagonism in the simultaneous activity of two antibacterial agents in vitro” Arch. intern. […]

Structures are written as SMILES.

Take `CCCC1COC(Cn2cncn2)(c2ccc(Cl)cc2Cl)O1` (stereo not shown) [(I-m) + (II-a) 100 + 0, 1-[[2-(2,4-dichlorophenyl)-4-propyl-1,3-dioxolan-2-yl]methyl]-1H-1,2,4-triazole]: the MIC in assay [1] was determined as 1.88 µg/mL; in assay [2], 5.01 µg/mL; in assay [3], 33.3 µg/mL.
With `[O-][n+]1ccccc1SSc1cccc[n+]1[O-]` [(I-n) + (II-g) 0 + 100, pyrion disulfide], in assay [3], the MIC came out at 1.88 µg/mL.

Source of the values: patent US20100305161A1, “COMBINATIONS OF FUNGICIDAL AZOLES AND PYRION COMPOUNDS” (priority 2007, published 2010).
